# In US11000033B2, “Ketone or oxime compound, and herbicide” (NISSAN CHEMICAL CORPORATION, priority 2014, dated 2021):
# Key:
# Format in all cases: in vivo
# rice = assay: Test Example 4: effect on crop by soil treatment (symbol b); conditions: for b: directly sowed rice plant, effect grade on crop: 320 g/ha; for b: directly sowed rice plant, effect on crop grade: application herbicide amount 320 g/ha
# Procedure, shortened: (§1)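 Crop seed is sown in spots together with several weed species in a box of sterilized diluvial soil. It is covered by about 1.5 cm of soil and kept in a greenhouse held between 25° C. and 30° C.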
# soybean = assay: Test Example 4: effect on crop by soil treatment (symbol d); conditions: for d: soybean, effect grade on crop: 320 g/ha; for d: soybean, effect on crop grade: application herbicide amount 320 g/ha
# Procedure, shortened: as §1
# Leptochloa chinensis = assay: Test Example 3: herbicidal effect by foliage application, Wagner pot (symbol D); conditions: application herbicide amount 320 g/ha
# Procedure, shortened: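 Foliar spray of a water-diluted emulsion at a predetermined herbicide amount, applied to 14-day-old plants. Seedlings were raised in flooded alluvial soil (0.1–0.5 cm water) at 25–30 °C in a greenhouse. Injury was rated after 3 weeks against fixed criteria.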
# Digitaria ciliaris = assay: Test Example 5: herbicidal effect by foliage application, plastic box (symbol F); conditions: 320 g/ha, 3 weeks after application
# Procedure, shortened: (§2)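 Herbicide, formulated as an emulsion and diluted in water, is sprayed onto the aerial parts of 14-day seedlings. These were grown at 25° C. to 30° C. in sterilized diluvial soil; effects are graded after 3 weeks.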
# [1] = tested on: Echinochloa crus-galli var. crus-galli; assay: Test Example 5: herbicidal effect by foliage application, plastic box (symbol H); conditions: 320 g/ha, 3 weeks after application
# Procedure, shortened: as §2
# Alopecurus myosuroides [2] = assay: Test Example 4: herbicidal effect by soil treatment (symbol J)
# Procedure, shortened: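 Seeds were sown in sterilized diluvial soil, covered with about 1.5 cm of soil, and the soil surface was sprayed with a water-diluted emulsion of the compound at a predetermined rate. Plants grew in a greenhouse at 25° C. to 30° C.; effects were scored visually 3 weeks after application.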
# Scirpus juncoides = assay: Test Example 1: herbicidal activity, application before weed generation in submerged conditions (symbol B); conditions: application herbicide amount 320 g/ha
# Procedure, shortened: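 Pre-emergence, paddy conditions: emulsifiable formulation diluted in water, dosed onto floodwater (4 cm depth) on sowing day. Alluvial soil; weeds sown mixed; rice transplanted at 2.5-leaf stage. Greenhouse 25–30 °C, 3 wk. Score 0–5 (5 = ≥90% kill, 0 = ≤5%).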
# Chenopodium album = assay: Test Example 5: herbicidal effect by foliage application, plastic box (symbol O); conditions: 320 g/ha, 3 weeks after application
# Procedure, shortened: as §2
# Galium spurium = assay: Test Example 5: herbicidal effect by foliage application, plastic box (symbol Q); conditions: 320 g/ha, 3 weeks after application
# Procedure, shortened: as §2
# Alopecurus myosuroides [3] = assay: Test Example 5: herbicidal effect by foliage application, plastic box (symbol J); conditions: 320 g/ha, 3 weeks after application
# Procedure, shortened: as §2
# Veronica persica = assay: Test Example 5: herbicidal effect by foliage application, plastic box (symbol R); conditions: 320 g/ha, 3 weeks after application
# Procedure, shortened: as §2
# rapeseed = assay: Test Example 5: effect on crop by foliage application, plastic box (symbol g); conditions: 320 g/ha, 3 weeks after application
# Procedure, shortened: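 Greenhouse test at 25° C. to 30° C. Seeds of crops and weeds were spot-sown in boxes of sterilized diluvial soil under roughly 1.5 cm soil cover, then grown for foliage treatment.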
# [4] = tested on: directly sowed rice plant; assay: Test Example 3: effect on crop by foliage application, Wagner pot (symbol b); conditions: application herbicide amount 320 g/ha
# Procedure, shortened: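 Greenhouse culture at 25–30 °C of seeded rice, Cyperus difformis, Leptochloa chinensis and Echinochloa crus-galli var. crus-galli, in alluvial soil held under 0.1–0.5 cm of water in a Wagner pot.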
# Apera spica-venti = assay: Test Example 5: herbicidal effect by foliage application, plastic box (symbol L); conditions: 320 g/ha, 3 weeks after application
# Procedure, shortened: as §2
# beet = assay: Test Example 4: effect on crop by soil treatment (symbol f); conditions: for f: beet, effect grade on crop: 320 g/ha; for f: beet, effect on crop grade: application herbicide amount 320 g/ha
# Procedure, shortened: as §1
# [5] = application herbicide amount 320 g/ha
smiles,measurement,setting,value
CON=C(C)CC1CC(OC(=O)c2ccccc2OC(F)(F)F)=C(c2c(C)cc(C)cc2C)C1=O (stereo not drawn) [1-155],"b: directly sowed rice plant, effect grade on crop",rice,5 (Herbicidal ratio of 90% or more (almost completely withered))
same,"d: soybean, effect grade on crop",soybean,0 (Herbicidal ratio of 5% or lower (almost no effect))
same,"herbicidal effect on D (Leptochloa chinensis), grade 0-5",Leptochloa chinensis,5 (Herbicidal ratio of 90% or more (almost completely withered))
same,"F: Digitaria ciliaris, herbicidal effect (criteria 0-5)",Digitaria ciliaris,5 (Herbicidal ratio of 90% or more (almost completely withered))
same,"H: Echinochloa crus-galli var. crus-galli, herbicidal effect (criteria 0-5)",[1],5 (Herbicidal ratio of 90% or more (almost completely withered))
same,"J: Alopecurus myosuroides, herbicidal effect grade",Alopecurus myosuroides [2]; 320 g/ha,5 (Herbicidal ratio of 90% or more (almost completely withered))
same,"Herbicidal effect grade, B: Scirpus juncoides",Scirpus juncoides,5 (Herbicidal ratio of 90% or more (almost completely withered))
same,"O: Chenopodium album, herbicidal effect (criteria 0-5)",Chenopodium album,0 (Herbicidal ratio of 5% or lower (almost no effect))
same,"Q: Galium spurium, herbicidal effect (criteria 0-5)",Galium spurium,0 (Herbicidal ratio of 5% or lower (almost no effect))
same,"J: Alopecurus myosuroides, herbicidal effect (criteria 0-5)",Alopecurus myosuroides [3],5 (Herbicidal ratio of 90% or more (almost completely withered))
same,"R: Veronica persica, herbicidal effect (criteria 0-5)",Veronica persica,3 (Herbicidal ratio of 40% or higher and lower than 70%)
same,"g: rapeseed, effect on crop (criteria 0-5)",rapeseed,4 (Herbicidal ratio of 70% or higher and lower than 90%)
same,"effect on crop b (directly sowed rice plant), grade 0-5",[4],5 (Herbicidal ratio of 90% or more (almost completely withered))
same,"L: Apera spica-venti, herbicidal effect (criteria 0-5)",Apera spica-venti,5 (Herbicidal ratio of 90% or more (almost completely withered))
same,"f: beet, effect grade on crop",beet,0 (Herbicidal ratio of 5% or lower (almost no effect))
CCOC(=O)C(C(=O)Cc1ccccc1)C1CC(O)=C(c2c(C)cc(C)cc2C)C1=O (stereo not drawn) [2-011],"b: directly sowed rice plant, effect on crop grade",rice,0 (Herbicidal ratio of 5% or lower (almost no effect))
same,"d: soybean, effect on crop grade",soybean,0 (Herbicidal ratio of 5% or lower (almost no effect))
same,"herbicidal effect on D (Leptochloa chinensis), grade 0-5",Leptochloa chinensis,0 (Herbicidal ratio of 5% or lower (almost no effect))
same,"F: Digitaria ciliaris, herbicidal effect grade",Digitaria ciliaris,0 (Herbicidal ratio of 5% or lower (almost no effect))
same,"H: Echinochloa crus-galli var. crus-galli, herbicidal effect grade",[1],2 (Herbicidal ratio of 20% or higher and lower than 40%)
same,"J: Alopecurus myosuroides, herbicidal effect grade",Alopecurus myosuroides [2]; [5],0 (Herbicidal ratio of 5% or lower (almost no effect))
same,"Herbicidal effect grade, B: Scirpus juncoides",Scirpus juncoides,0 (Herbicidal ratio of 5% or lower (almost no effect))
same,"O: Chenopodium album, herbicidal effect grade",Chenopodium album,0 (Herbicidal ratio of 5% or lower (almost no effect))
same,"Q: Galium spurium, herbicidal effect grade",Galium spurium,0 (Herbicidal ratio of 5% or lower (almost no effect))
same,"J: Alopecurus myosuroides, herbicidal effect grade",Alopecurus myosuroides [3],1 (Herbicidal ratio of 5% or higher and lower than 20%)
same,"R: Veronica persica, herbicidal effect grade",Veronica persica,0 (Herbicidal ratio of 5% or lower (almost no effect))
same,"g: rapeseed, effect on crop grade",rapeseed,0 (Herbicidal ratio of 5% or lower (almost no effect))
same,"effect on crop b (directly sowed rice plant), grade 0-5",[4],0 (Herbicidal ratio of 5% or lower (almost no effect))
same,"L: Apera spica-venti, herbicidal effect grade",Apera spica-venti,0 (Herbicidal ratio of 5% or lower (almost no effect))
same,"f: beet, effect on crop grade",beet,0 (Herbicidal ratio of 5% or lower (almost no effect))
CCc1cc(Br)cc(C)c1C1=C(O)CC(C(C(=O)OC)C(C)=NOC)C1=O (stereo not drawn) [6-002],"b: directly sowed rice plant, effect on crop grade",rice,5 (Herbicidal ratio of 90% or more (almost completely withered))
same,"d: soybean, effect on crop grade",soybean,0 (Herbicidal ratio of 5% or lower (almost no effect))
same,"herbicidal effect on D (Leptochloa chinensis), grade 0-5",Leptochloa chinensis,4 (Herbicidal ratio of 70% or higher and lower than 90%)
same,"F: Digitaria ciliaris, herbicidal effect grade",Digitaria ciliaris,5 (Herbicidal ratio of 90% or more (almost completely withered))
same,"H: Echinochloa crus-galli var. crus-galli, herbicidal effect grade",[1],5 (Herbicidal ratio of 90% or more (almost completely withered))
same,"J: Alopecurus myosuroides, herbicidal effect grade",Alopecurus myosuroides [2]; [5],2 (Herbicidal ratio of 20% or higher and lower than 40%)
same,"Herbicidal effect grade, B: Scirpus juncoides",Scirpus juncoides,0 (Herbicidal ratio of 5% or lower (almost no effect))
same,"O: Chenopodium album, herbicidal effect grade",Chenopodium album,0 (Herbicidal ratio of 5% or lower (almost no effect))
same,"Q: Galium spurium, herbicidal effect grade",Galium spurium,0 (Herbicidal ratio of 5% or lower (almost no effect))
same,"J: Alopecurus myosuroides, herbicidal effect grade",Alopecurus myosuroides [3],5 (Herbicidal ratio of 90% or more (almost completely withered))
same,"R: Veronica persica, herbicidal effect grade",Veronica persica,0 (Herbicidal ratio of 5% or lower (almost no effect))
same,"g: rapeseed, effect on crop grade",rapeseed,0 (Herbicidal ratio of 5% or lower (almost no effect))
same,"effect on crop b (directly sowed rice plant), grade 0-5",[4],5 (Herbicidal ratio of 90% or more (almost completely withered))
same,"L: Apera spica-venti, herbicidal effect grade",Apera spica-venti,5 (Herbicidal ratio of 90% or more (almost completely withered))
same,"f: beet, effect on crop grade",beet,0 (Herbicidal ratio of 5% or lower (almost no effect))
COCCOC(=O)OC1=C(c2c(C)cc(C)cc2C)C(=O)C(CC(C)=NOC)C1 (stereo not drawn) [1-147],"b: directly sowed rice plant, effect grade on crop",rice,5 (Herbicidal ratio of 90% or more (almost completely withered))
same,"d: soybean, effect grade on crop",soybean,0 (Herbicidal ratio of 5% or lower (almost no effect))
same,"herbicidal effect on D (Leptochloa chinensis), grade 0-5",Leptochloa chinensis,5 (Herbicidal ratio of 90% or more (almost completely withered))
same,"F: Digitaria ciliaris, herbicidal effect (criteria 0-5)",Digitaria ciliaris,5 (Herbicidal ratio of 90% or more (almost completely withered))
same,"H: Echinochloa crus-galli var. crus-galli, herbicidal effect (criteria 0-5)",[1],5 (Herbicidal ratio of 90% or more (almost completely withered))
same,"J: Alopecurus myosuroides, herbicidal effect grade",Alopecurus myosuroides [2]; 320 g/ha,5 (Herbicidal ratio of 90% or more (almost completely withered))
same,"Herbicidal effect grade, B: Scirpus juncoides",Scirpus juncoides,5 (Herbicidal ratio of 90% or more (almost completely withered))
same,"O: Chenopodium album, herbicidal effect (criteria 0-5)",Chenopodium album,1 (Herbicidal ratio of 5% or higher and lower than 20%)
same,"Q: Galium spurium, herbicidal effect (criteria 0-5)",Galium spurium,4 (Herbicidal ratio of 70% or higher and lower than 90%)
same,"J: Alopecurus myosuroides, herbicidal effect (criteria 0-5)",Alopecurus myosuroides [3],5 (Herbicidal ratio of 90% or more (almost completely withered))
same,"R: Veronica persica, herbicidal effect (criteria 0-5)",Veronica persica,4 (Herbicidal ratio of 70% or higher and lower than 90%)
same,"g: rapeseed, effect on crop (criteria 0-5)",rapeseed,4 (Herbicidal ratio of 70% or higher and lower than 90%)
same,"effect on crop b (directly sowed rice plant), grade 0-5",[4],5 (Herbicidal ratio of 90% or more (almost completely withered))
same,"L: Apera spica-venti, herbicidal effect (criteria 0-5)",Apera spica-venti,5 (Herbicidal ratio of 90% or more (almost completely withered))
same,"f: beet, effect grade on crop",beet,0 (Herbicidal ratio of 5% or lower (almost no effect))
CCCC(=O)CC1CC(O)=C(c2c(C)cc(C)cc2C)C1=O (stereo not drawn) [2-021],"b: directly sowed rice plant, effect on crop grade",rice,5 (Herbicidal ratio of 90% or more (almost completely withered))
same,"d: soybean, effect on crop grade",soybean,0 (Herbicidal ratio of 5% or lower (almost no effect))
same,"herbicidal effect on D (Leptochloa chinensis), grade 0-5",Leptochloa chinensis,3 (Herbicidal ratio of 40% or higher and lower than 70%)
same,"F: Digitaria ciliaris, herbicidal effect grade",Digitaria ciliaris,4 (Herbicidal ratio of 70% or higher and lower than 90%)
same,"H: Echinochloa crus-galli var. crus-galli, herbicidal effect grade",[1],4 (Herbicidal ratio of 70% or higher and lower than 90%)
same,"J: Alopecurus myosuroides, herbicidal effect grade",Alopecurus myosuroides [2]; [5],5 (Herbicidal ratio of 90% or more (almost completely withered))
same,"Herbicidal effect grade, B: Scirpus juncoides",Scirpus juncoides,4 (Herbicidal ratio of 70% or higher and lower than 90%)
same,"O: Chenopodium album, herbicidal effect grade",Chenopodium album,0 (Herbicidal ratio of 5% or lower (almost no effect))
same,"Q: Galium spurium, herbicidal effect grade",Galium spurium,0 (Herbicidal ratio of 5% or lower (almost no effect))
same,"J: Alopecurus myosuroides, herbicidal effect grade",Alopecurus myosuroides [3],5 (Herbicidal ratio of 90% or more (almost completely withered))
same,"R: Veronica persica, herbicidal effect grade",Veronica persica,0 (Herbicidal ratio of 5% or lower (almost no effect))
same,"g: rapeseed, effect on crop grade",rapeseed,3 (Herbicidal ratio of 40% or higher and lower than 70%)
same,"effect on crop b (directly sowed rice plant), grade 0-5",[4],5 (Herbicidal ratio of 90% or more (almost completely withered))
same,"L: Apera spica-venti, herbicidal effect grade",Apera spica-venti,0 (Herbicidal ratio of 5% or lower (almost no effect))
same,"f: beet, effect on crop grade",beet,0 (Herbicidal ratio of 5% or lower (almost no effect))
